Laboratory results as given in patent US10493170B1, “Targeted graphene quantum dot-based theranostics” (University of South Florida, priority 2014, dated 2019).

What was measured:
Type in all cases: cell-based
[1] = system: normal ovary epithelial cells T80; experiment: MTT cell viability assay, T80; conditions: T80, 24 h, concentration equivalent to Dox, read-out: IC50 (relative cellular viability)
Experimental: (§1) Cells were treated with various concentrations of GQDs-FA-Dox (0, 0.25, 0.5, 1, 2, and 4 μM equivalent to Dox) for 24 h and 48 h, respectively. Cell viability was determined by the MTT assay. In brief, the cells were treated with GQDs-FA-Dox conjugates, 10 μL MTT (5 mg/ml) was added into each well and incubated for 4 h, culture medium was removed and 100 μL DMSO was added to dissolve formazan crystals. Absorbance was read at 560 nm for formazan and 670 nm for background by Synergy H4 hybrid multi-mode microplate reader (BioTek).
(§2) To determine the effective dosage of GQDs-FA-Dox on ovarian cancer cells and normal cells, a dose-course MTT assay was done on Ovcar3 cells. The cells were treated with a series of concentration of DOX, GQDs-FA-Dox, and GQDs-Dox for 0.01 to 4 μM (equivalent to Dox concentration) for 24 h.

[2] = system: ovarian cancer cells ovcar3; experiment: Colony formation assay, ovcar3
Experimental: Colony formation assays were performed with ovarian cancer cells ovcar3 and ovarian surface epithelial cells T80 to examine the impact of DOX, […]-Dox, or GQDs-Dox on the cell growth inhibition.

ovarian cells Ovcar3 = experiment: MTT cell viability assay, Ovcar3; conditions: Homo sapiens, OVCAR-3; Ovcar3, 24 h, concentration equivalent to Dox; read-out: IC50 (relative cellular viability)
Experimental: as §1, §2

IC50 (ovarian cells Ovcar3) [nM]	SMILES	IC50 [1] [nM]	colony growth ([2]; ovcar3)	effect of folic acid on ovcar3 cells in response of GQDs-FA-DOX ([2]; ovcar3, colony formation, co-treatment with GQDs-FA-DOX)
930	COc1cccc2c1C(=O)c1c(O)c3c(c(O)c1C2=O)C[C@@](O)(C(=O)CO)C[C@@H]3O[C@H]1C[C@H](N)[C@H](O)[C@H](C)O1 [DOX, Doxorubicin]	860	strongly inhibited	
	Nc1nc2ncc(CNc3ccc(C(=O)N[C@@H](CCC(=O)O)C(=O)O)cc3)nc2c(=O)[nH]1 [Folic acid, folic acid]			protective effect
